Experimental data reported in paper PMC13185115, “Photovermellogens: Minimalistic Pyridinium-Based Acylhydrazones with Photoswitchable Basicity for Operation in Aqueous Media” (The Journal of Organic Chemistry, 2026).

Key:
Type in all cases: physicochemical
[1] = Photoisomerization kinetics and quantum yields of the protonated forms (UV-vis); details: for k E-PH+ to Z-PH+ photoisomerization: pH 6 (pH 5 for P bH·Cl); for Φ Z→E photoisomerization quantum yield: irradiation at 440 nm
Text: (§1) Photoisomerization studies were subsequently carried out in acidic medium (pH = pK a – 2) in order to assess the photoresponse of the protonated species. Under these conditions, the anticipated photoisomerization of the thermally stable E-P a–dH^+ species was investigated by UV–vis absorption spectroscopy under irradiation at 254 nm. […] It is noteworthy that the irradiation wavelength can be extended to 365 nm, yielding virtually the same observations as for 254 nm irradiation (see footnotes of Table ). Irradiation also produced clear NMR spectral changes that support the occurrence of the E→Z isomerization. In essence, the signals Hf–h of the phenyl moiety were only slightly affected, whereas those of the pyridinium and acylhydrazone fragments shifted markedly, consistent with the formation of an intramolecular hydrogen bond in the Z-P a–cH^+ species. The reverse Z→E transformation of the protonated forms P a–cH^+ was also achieved upon irradiation at λ > 420 nm, giving lower quantum yields and less favorable PSDs (Figures S145–S147, S149–154, S1).
5. Isomerization Photochemical Data.
5.1. E-P a-cH+→Z-P a-cH+ photoisomerization kinetics.
(§2) Figure S138. Left: variations in the absorption spectrum of P aH·Cl (20.6 µM, pH = 6) upon irradiation at 254 nm; the absorption spectrum of the E-form is shown in red; the photostationary state is in blue. Right: Kinetics (monitored at 320 nm) for the E-P aH+ to Z-P aH+ photoisomerization (20.6 µM) upon irradiation at 254 nm (I 0 = 1.37 × 10 –7 mol/s); k = 1.55 × 10 –2 […]
as §2, with “S139.” for “S138.”, “(17.5” for “(20.6”, “365” for “254”, “400” for “320”, “2.6” for “1.37”, “6.4” for “1.55”
Figure S140. Left: variations in the absorption spectrum of P bH·Cl (7.9 µM, pH = 5) upon […]
state is in blue. Right: Kinetics (monitored at 370 nm) for the E-P bH+ to Z-P bH+ photoisomerization (7.9 µM) upon irradiation at 254 nm (I 0 = 1.41 × 10 –7 mol/s); k = 4.91 × 10 –2 […]
Figure S141. Left: variations in the absorption spectrum of P bH·Cl (10 µM, pH = 5) upon […]
state is in blue. Right: Kinetics (monitored at 420 nm) for the E-P bH+ to Z-P bH+ photoisomerization (10 µM) upon irradiation at 365 nm (I 0 = 2.0 × 10 –7 mol/s); k = 3.0 × 10 –2 s–1.
Figure S142. Left: variations in the absorption spectrum of P cH·Cl (9 µM, pH = 6) upon […]
state is in blue. Right: Kinetics (monitored at 377 nm) of the E-P cH+ to Z-P cH+ photoisomerization […]
Figure S143. Left: variations in the absorption spectrum of P cH·Cl (10 µM, pH = 6) upon […]
state is in blue. Right: Kinetics (monitored at 410 nm) of the E-P cH+ to Z-P cH+ photoisomerization

[2] = Photostationary state distribution by 1H NMR integration; details: pD 6; for PSD E→Z (photostationary state distribution): irradiation at 254 nm; for PSD Z→E (photostationary state distribution): irradiation at >420 nm
Text: as §1

[3] = pKa determination for the photostationary state (Z-enriched) by UV-Vis spectroscopy; details: apparent acidity constant of the cationic Z form as present in the photostationary state (88–97% Z) after 254 nm irradiation; water
Text: Having confirmed the photochemical behavior of the protonated forms, we next explored their light-responsiveness in the deprotonated state. […] To probe whether Z-P a–c could nonetheless be generated indirectly, we explored a consecutive photoisomerization–deprotonation sequence. Thus, E-P a–cH^+ was first irradiated at 254 nm and pH 6 to enrich the Z population, followed by immediate adjustment of the solution to pH 13. Under these conditions, transient spectroscopic features were observed, consistent with the kinetic trapping of the metastable Z-P a–c species. […] These spectroscopic observations enabled the estimation of virtual pK a values for the Z-enriched solutions (Table and Figures S163–168, SI1), which confirmed the reduced acidity of the NH group in the Z-isomers, presumably arising from intramolecular hydrogen-bond formation.
6. Determination of pK a values for the PSS by UV-Vis spectroscopy.
The concentration of P a-cH·Cl was kept constant at appropriate values in the 10-20 µM range, and that of the phosphate buffer at 20 mM. The absorption measurements of the corresponding air-equilibrated phosphate buffered aqueous solutions were carried out at room temperature (298 K), in quartz cuvettes with 1 cm optical pathlength. For the kinetic trapping of the deprotonated Z-isomers of P a-cH·Cl, a solution of the corresponding salt in phosphate buffered solution at a conveniently acidic pH/pD was irradiated at 254 nm until reaching the PSS. Then, the pH of the solution was in each case adjusted to the required final value, by addition of 40 mM stock solutions of phosphate buffer of the required composition. The reported measurements were done as fast as possible to minimize thermal back-isomerization.

[4] = Thermal Z-PH+ to E-PH+ back-isomerization kinetics
Text: as §1
5.5. Z-P a-cH+→E-P a-cH+ thermal back-isomerization kinetics.
Figure S155. Absorption spectrum variation during 48h at room temperature from the PSS reached for P aH·Cl (7µM, pH 6, Red) state during 48h. E-isomer absorption spectrum in green.
Even though the kinetics has not been fully completed, it can be observed that it occurs much more slowly than photochemical processes.
To obtain an estimation of P aH·Cl Z→E thermal half-live at room temperature, the Z →E thermal reversion kinetics were monitored starting from the 254nm photostationary state at different temperatures (47, 55 and 64 °C). By tracking the absorbance changes at 420 nm, an Arrhenius analysis was performed, allowing the determination of the activation energy (EA) and the estimation of the thermal half-life at 25 °C.

[5] = irradiation at 254 nm (I0 1.37–1.41 × 10–7 mol/s)
[6] = irradiation at 254 nm, pH 6, error ± 20%
[7] = irradiation at 365 nm (I0 2.0–2.6 × 10–7 mol/s)

Row | E→Z photoisomerization of the protonated form (UV-vis changes) ([1]; irradiation at 254 nm, acidic medium pH = pKa – 2) | PSD E→Z (photostationary state distribution) [2] | PSD Z→E (photostationary state distribution) [2] | pK a (PSD) [3] | Φ E→Z photoisomerization quantum yield [1, 6] | Φ E→Z photoisomerization quantum yield ([1]; irradiation at 365 nm) | Φ Z→E photoisomerization quantum yield ([1]; pH 6, error ± 20%) | Structure (SMILES) | k Z→E unimolecular rate constant, thermal back-isomerization ([4]; heating to 70 °C, pD 5) | k E-PH+ to Z-PH+ photoisomerization [1, 5] | k E-PH+ to Z-PH+ photoisomerization [1, 7] | k Z→E unimolecular rate constant, thermal back-isomerization ([4]; heating to 70 °C, pD 6) | k Z→E unimolecular rate constant, thermal back-isomerization ([4]; heating to 60 °C, pD 6)
1 | no detectable changes | – | – | – | – | – | – | C[n+]1ccc(-c2ccc(NN=CC(=O)c3ccccc3)cc2)cc1 [P dH^+] | – | – | – | – | –
2 | – | 93% Z | 57% E | 8.8 ± 0.2 | 0.38 | 0.35 | 0.002 | C[n+]1ccc(NN=CC(=O)c2ccccc2)c2ccccc21 [P bH^+] | 9.8 10^–4 s^–1 | 4.91 10^–2 s^–1 | 3.0 10^–2 s^–1 | – | –
3 | – | 98% Z | 55% E | 9.9 ± 0.1 | 0.34 | 0.34 | 0.008 | O=C(C=NNc1cc[n+](-c2ccccc2)cc1)c1ccccc1 [P cH^+] | – | 4.90 10^–2 s^–1 | 2.0 10^–2 s^–1 | 2.4 10^–4 s^–1 | –
4 | – | 93% Z | 67% E | 10.4 ± 0.2 | 0.20 | 0.22 | 0.001 | C[n+]1ccc(NN=CC(=O)c2ccccc2)cc1 [P aH^+] | – | 1.55 10^–2 s^–1 | 6.4 10^–2 s^–1 | – | 4.1 10^–4 s^–1
